According to patent US20240425512A1, “NITROGEN-CONTAINING HETEROCYCLIC COMPOUND, PHARMACEUTICAL COMPOSITION THEREOF AND APPLICATION THEREOF” (280 Bio, Inc., priority 2023, published 2024):
Like-named read-outs stand apart in the source and are kept apart here. Blank lines part the entries; values can stand above or below the compound they belong to.

What was measured:
Format in all cases: cell-based
[1] = test system: LS513 colon cancer cell with KRAS G12D mutation; assay: Proliferation inhibition on RAS cell lines measured by CTG, LS513; settings: LS513 cells, incubated for 6 days, CellTiter Glo
Excerpt: (§1) NCI-H358 is a human non-small cell lung cancer cell line with KRAS G12C mutation; AGS is a gastric cancer cell line with KRAS G12D mutation; SW620 is a colon cancer cell with KRAS G12V mutation; NCI-H460 is a non-small cell lung cancer cell with KRAS Q61H mutation; MKN1 is a wild-type gastric cancer cell with KRAS-amplified; LS513 is a colon cancer cell with KRAS G12D mutation; LoVo is a colon cancer cell with KRAS G13D mutation; NCI-H441 is a lung cancer cell with KRAS G12V mutation, and Capan-2 is a pancreatic cancer cell with KRAS G12V mutation.
(§2) The proliferation inhibitory effect of the compounds on various mutations was evaluated by determining the proliferation inhibitory activity of the compounds on these cell lines.
(§3) The assay was conducted on either 384-well plates or 96-well plates. The procedures are as follows:
(§4) The cell suspensions were added to 384- or 96-well plates (384-well plate: 50 μL; 96-well plate: 100 μL) except for peripheral wells. The plates were placed in a carbon dioxide incubator overnight. NCI-H358, AGS, NCI-H460, MKN-1, LS513, LoVo, and NCI-H441 were placed in a 5%, 370 carbon dioxide incubator overnight, and SW620 was placed in a 0%, 370 carbon dioxide incubator overnight. The HPD300 micro-dosing instrument was used to add the corresponding concentration of compound to each well (9-10 concentration gradients of compound were obtained by 3-fold dilution). Cell plates were incubated in a carbon dioxide incubator for 5-6 days. NCI-H358, AGS, NCI-H460 and MKN-1 were incubated at 5%, 37° incubator and SW620 was incubated at 0%, 370 incubator. On the day of plate measurement, the 384- or 96-well plates were first equilibrated at room temperature for 10-30 min, then CellTiter Glo reagent (384-well plate: 25 μL; 96-well plate: 100 μL) was added to the 384- or 96-well plate, shaken for 10 min away from light, and incubated for 10 min. The plates were placed into Victor NIVO or ENVIDION reader plates, and XLFit was utilized to plot the pharmacodynamic inhibition curve and calculate the IC50 value. “IC50>10 μM” is denoted by “*”, “10 μM≥IC50≥1 μM” is denoted by “**”, and “1 μM≥IC50>100 nM” is denoted by “***”, “IC50<100 nM” is denoted by “****”

[2] = test system: NCI-H441 lung cancer cell with KRAS G12V mutation; assay: Proliferation inhibition on RAS cell lines measured by CTG, NCI-H441; settings: Homo sapiens, Table 2, NCI-H441 cells, incubated for 6 days, CellTiter Glo
Excerpt: as §1, §2, §3, §4

[3] = test system: Capan-2 pancreatic cancer cell with KRAS G12V mutation; assay: Proliferation inhibition on RAS cell lines measured by CTG, Capan-2; settings: Homo sapiens, 144 h; Table 2; Capan-2 cells, incubated for 6 days, CellTiter Glo; read-out: IC50 (Capan-2^i)
Excerpt: as §1, §2, §3, §4

[4] = test system: SW620 colon cancer cell with KRAS G12V mutation; assay: Proliferation inhibition on RAS cell lines measured by CTG, SW620; settings: Homo sapiens, SW-620, 144 h; Table 2; SW620 cells, incubated for 6 days, CellTiter Glo; read-out: IC50 (SW620^c)
Excerpt: as §1, §2, §3, §4

GP2D cells = assay: Proliferation inhibition on RAS cell lines measured by CTG, GP2D; settings: CellTiter Glo
Protocol: as §2, §3, §4

[5] = Homo sapiens, LS-513, 144 h, Table 2, read-out: IC50 (LS513^f)
[6] = Homo sapiens, LS-513, 144 h, Table 3, read-out: IC50 (LS513^k)
[7] = 144 h, Table 3, incubated for 6 days, read-out: IC50 (GP2D^l)
[8] = Table 3, read-out: IC50 (LS513^k)
[9] = Table 3, incubated for 6 days, read-out: IC50 (GP2D^l)

IC50 [1, 5]: < 0.1 µM
IC50 ([2]; NCI-H441, 144 h): < 0.1 µM
SMILES: C#Cc1c(F)ccc2cc(OC(=O)C(C)C)cc(-c3ncc4c(N5CCCCCN5)nc(OC[C@@]56CCCN5C[C@H](F)C6)nc4c3F)c12 [Compound 23]

IC50 [1, 5]: < 0.1 µM
IC50 ([2]; NCI-H441, 144 h): 0.1 to 1 µM
SMILES: C#Cc1c(F)ccc2cc(O)cc(-c3ncc4c(N5CCCCCN5)nc(OCC56CCCN5CC(=C)C6)nc4c3F)c12 (centres unmarked) [Compound 24]

IC50 [1, 5]: 0.1 to 1 µM
IC50 ([2]; NCI-H441, 144 h): 0.1 to 1 µM
SMILES: C#Cc1c(F)ccc2cc(O)cc(-c3ncc4c(N5CCCCCCN5)nc(OC[C@@]56CCCN5C[C@H](F)C6)nc4c3F)c12 [Compound 15]

IC50 [4]: < 0.1 µM
IC50 [1, 5]: < 0.1 µM
SMILES: C#Cc1c(F)ccc2cc(N)cc(-c3ncc4c(N5CCCCCN5)nc(OC[C@@]56CCCN5C[C@H](F)C6)nc4c3F)c12 [Compound 30]

IC50 [4]: 1 to 10 µM
SMILES: C#Cc1c(F)ccc2cc(O)cc(-c3c(Cl)cc4c(N5CCCCCN5)nc(OC[C@@]56CCCN5C[C@H](F)C6)nc4c3F)c12 [Compound 41]

IC50 [1, 8]: < 0.1 µM
SMILES: C#Cc1c(F)ccc2cc(OC(=O)[C@@H](NC(=O)OC(C)(C)C)C(C)C)cc(-c3ncc4c(N5CCCCCN5)nc(OC[C@@]56CCCN5C[C@H](F)C6)nc4c3F)c12 [Compound 95]
IC50 (GP2D cells; [9]): < 0.1 µM

IC50 [4]: < 0.1 µM
IC50 [1, 5]: < 0.1 µM
SMILES: C#Cc1c(F)ccc2cc(O)cc(-c3c(F)cc4c(N5CCCCCN5)nc(OC[C@@]56CCCN5C[C@H](F)C6)nc4c3F)c12 [Compound 49]

IC50 [1, 8]: < 0.1 µM
SMILES: C#Cc1c(F)ccc2cc(OC(=O)COCCOCCOCCOC)cc(-c3ncc4c(N5CCCCCN5)nc(OC[C@@]56CCCN5C[C@H](F)C6)nc4c3F)c12 [Compound 102]
IC50 (GP2D cells; [9]): < 0.1 µM

IC50 [1, 6]: 0.1 to 1 µM
SMILES: C#Cc1c(F)ccc2cc(OCOC(=O)N(C)C)cc(-c3ncc4c(N5CCCCCN5)nc(OC[C@@]56CCCN5C[C@H](F)C6)nc4c3F)c12 [Compound 145]
IC50 (GP2D cells; [7]): 0.1 to 1 µM

More lines, now with the values behind:

SMILES: C#Cc1c(F)ccc2cc(OC(=O)NC)cc(-c3ncc4c(N5CCCCCN5)nc(OC[C@@]56CCCN5C[C@H](F)C6)nc4c3F)c12 [Compound 19]
IC50 [1, 5]: < 0.1 µM
IC50 ([2]; 144 h): 1 to 10 µM

SMILES: Oc1cc(-c2ncc3c(N4CCCCCN4)nc(OC[C@@]45CCCN4C[C@H](F)C5)nc3c2F)c2c(Cl)cccc2c1 [Compound 35]
IC50 [1, 5]: < 0.1 µM
IC50 [3]: 0.1 to 1 µM

SMILES: C#Cc1c(F)ccc2cc(O)cc(-c3ncc4c(N5CCCCCN5)nc(OCC5(CN6CCOCC6)CC5)nc4c3F)c12 [Compound 29]
IC50 [1, 5]: < 0.1 µM
IC50 [3]: < 0.1 µM

SMILES: C#Cc1c(F)ccc2cc(O)cc(-c3ncc4c(N5CCCCN5C(=O)OC(C)(C)C)nc(OC[C@@]56CCCN5C[C@H](F)C6)nc4c3F)c12 [Compound 17]
IC50 [1, 5]: < 0.1 µM
IC50 ([2]; NCI-H441, 144 h): 0.1 to 1 µM

SMILES: C#Cc1c(F)ccc2cc(O)cc(-c3ncc4c(N5CCCCCN5)nc(OCC5(CN6CCC(=CF)CC6)CC5)nc4c3F)c12 [Compound 106]
IC50 [1, 6]: < 0.1 µM
IC50 (GP2D cells; [7]): < 0.1 µM

SMILES: C#Cc1c(F)ccc2cc(O)cc(-c3ncc4c(N5CCCCCN5)nc(OC[C@@]56CC[C@H](c7ccc(C(F)(F)F)c(F)c7)N5C[C@H](F)C6)nc4c3F)c12 [Compound 118]
IC50 [1, 6]: 0.1 to 1 µM
IC50 (GP2D cells; [7]): 0.1 to 1 µM

SMILES: C#Cc1c(F)ccc2cc(O)cc(-c3ncc4c(N5CCCCCN5)nc(OC[C@@H]5CCCN5C)nc4c3F)c12 [Compound 72]
IC50 [1, 5]: < 0.1 µM
IC50 (GP2D cells; 144 h, Table 2, incubated for 6 days, read-out: IC50 (GP2D^j)): < 0.1 µM

SMILES: C#Cc1c(F)ccc2cc(OC(=O)NCCCCCCCCCCCC)cc(-c3ncc4c(N5CCCCCN5)nc(OC[C@@]56CCCN5C[C@H](F)C6)nc4c3F)c12 [Compound 133]
IC50 [1, 6]: < 0.1 µM
IC50 (GP2D cells; [7]): < 0.1 µM

SMILES: C#Cc1c(F)ccc2cc(N)cc(-c3c(F)cc4c(N5CCCCCN5)nc(OC[C@@]56CCCN5C[C@H](F)C6)nc4c3F)c12 [Compound 131]
IC50 [1, 8]: 0.1 to 1 µM
IC50 (GP2D cells; [9]): 0.1 to 1 µM
